Data on 70 compounds can be found in the OPERA property sets (Mansouri et al. 2018).

Structures are written as SMILES. Values after ≈ are worked out from the molar mass of the structure shown.

Conditions in one data set: not given
Consider `CCN(CC)CCSCCN(CC)CC`, for which the solubility (as a rule, the concentration that dissolves in the medium under given conditions) is 4.3 mM (≈ 1000 µg/mL).

`CCCC(=O)OCCOCCOCCOC(=O)CCC` showed a solubility of 27.6 mM (≈ 8000 µg/mL). In the case of `CCCCOC(=O)CCO`, the solubility was determined as 51.3 mM (≈ 7500 µg/mL). With `O=C(O)C(S)CS` (stereo not given), the solubility was 579 mM (≈ 80000 µg/mL).

The compound `CC1(C)OC(=O)c2cc3ccccc3cc21` had a solubility of 1.04 mM (≈ 220 µg/mL).

Compound `CCCc1cc(F)ccc1O` registered a solubility of 13 mM (≈ 2000 µg/mL).

`CCC(Br)(Br)C(=O)O` yielded a solubility of 134 mM (≈ 33000 µg/mL). For the compound `CCN(CC)CN(CC)CC`, the solubility came to 632 mM (≈ 100000 µg/mL). For `Nc1ccc(C#Cc2ccc(N)cc2)cc1`, the solubility worked out at 3.69 mM (≈ 769 µg/mL).

For the compound `CCOCCOC(=O)CCCCC(=O)OCCOCC`, the solubility was 8.61 mM (≈ 2500 µg/mL). Still for that read-out and setting: the result for `C[C@H]1NC(=O)[C@@H](C)NC1=O` reads 703 mM (≈ 100000 µg/mL); that for `CCOC(CC(C)O)OCC` (stereo not given), 1230 mM (≈ 200000 µg/mL). The same measure, in the same setting: as for `CC(C)CCOCC(O)COCCC(C)C`, the figure is 43 mM (≈ 10000 µg/mL); as for `Cc1cc(N)n(-c2ccccc2)n1`, 115 mM (≈ 20000 µg/mL); as for `O=C(O)C=CCCC(=O)O`, 62.4 mM (≈ 9000 µg/mL). Same read-out and setting: the result for `CC(C)CCOCC(O)CO` (stereo not given) reads 61.6 mM (≈ 10000 µg/mL); that for `O=C(O)CSSSSCC(=O)O`, 35.3 mM (≈ 8700 µg/mL); that for `O=C(c1ccco1)N(O)c1ccccc1`, 0.64 mM (≈ 130 µg/mL). `Cn1c(=O)ncc2[nH]c(=O)[nH]c21` yielded a solubility of 161 mM (≈ 26700 µg/mL).

On to `O=C(c1ccccc1)N(O)c1cccc2ccccc12`, for which the solubility amounted to 0.494 mM (≈ 130 µg/mL). Same read-out and setting: the result for `CCCCOC(=O)CCC(=O)OCCCC` reads 0.999 mM (≈ 230 µg/mL); that for `NC(=O)NCl`, 2120 mM (≈ 200000 µg/mL); that for `NNC(=O)[C@H](O)[C@@H](O)[C@H](O)[C@H](O)CO`, 317 mM (≈ 66700 µg/mL). Still for that read-out and setting: as for `COc1ccc(NCC(O)CO)cc1` (stereo not given), the figure is 507 mM (≈ 100000 µg/mL); as for `CCOC(C)C(=O)C=O` (stereo not given), 699 mM (≈ 91000 µg/mL); as for `Nc1ccc(CC(=O)c2ccccc2)cc1`, 15.7 mM (≈ 3310 µg/mL).

The same data set, now with this note: 20 °C.
Compound `Cc1cc(C)c(OCC(=O)O)c(Br)c1` yielded a solubility of 0.753 mM (≈ 195 µg/mL). For the compound `Cc1ccc(C(=O)O)o1`, the solubility came to 150 mM (≈ 18900 µg/mL). `Oc1cnc2ccccc2c1` had a solubility of 4.05 mM (≈ 588 µg/mL).

Compound `O=C(NCCO)C(=O)NCCO` had a solubility of 772 mM (≈ 136000 µg/mL). Regarding `CC(=O)CC1=NCCS1`, the solubility was determined as 69.8 mM (≈ 10000 µg/mL).

`CC(=O)Nc1ccc(Cl)cc1C` showed a solubility of 4.9 mM (≈ 900 µg/mL). For `COc1cc(C(C)=O)ccc1O`, the solubility was found to be 30.1 mM (≈ 5000 µg/mL).

In turn, `CC1CCC2(CCC(C)O2)O1` (stereo not given) displayed a solubility of 356 mM (≈ 55600 µg/mL). As to `COc1nsc(N)n1`, the solubility was 57.2 mM (≈ 7500 µg/mL). Turning to `O=[N+]([O-])c1cccc(CO)c1`, the solubility worked out at 3.85 mM (≈ 590 µg/mL). On the same count and under the same terms, as for `CC(=O)Nc1ccc(C)cc1F`, the figure is 18.2 mM (≈ 3040 µg/mL); as for `NC1=NC(C(=O)O)CCS1` (stereo not given), 187 mM (≈ 30000 µg/mL); as for `O=C1C=Cc2ccccc2C1=NO`, 1.16 mM (≈ 200 µg/mL). Same read-out and setting: as for `C=CS(=O)(=O)Nc1ccccc1`, the figure is 31.7 mM (≈ 5800 µg/mL).

Take `Brc1ccc2c(c1)Sc1ccccc1N2`: the solubility worked out at 0.000773 mM (≈ 0.215 µg/mL). In the case of `OCc1ccccc1Br`, the solubility was 6.95 mM (≈ 1300 µg/mL).

With `O=C(O)CC(SC(CC(=O)O)C(=O)O)C(=O)O` (stereo not given), the solubility was 323 mM (≈ 86000 µg/mL). On the same count and under the same terms, as for `O=C(O)C(O)C(O)c1ccccc1` (stereo not given), the figure is 494 mM (≈ 90000 µg/mL). In turn, `COC(=O)c1ccc([N+](=O)[O-])cc1C(=O)O` returned a solubility of 8.79 mM (≈ 1980 µg/mL).

Take `O=C(O)c1ccccc1CO`: the solubility turned out to be 28.1 mM (≈ 4280 µg/mL). Take `NC(=O)CBr`: the solubility worked out at 1160 mM (≈ 160000 µg/mL). `CC(C)Cc1ncc[nH]1` came in with a solubility of 89.4 mM (≈ 11100 µg/mL). Regarding `O=C(O)COc1cccc(Cl)c1`, the solubility was found to be 6.38 mM (≈ 1190 µg/mL). `OCc1cc(Cl)c(Cl)c(Cl)c1` came in with a solubility of 0.804 mM (≈ 170 µg/mL). Still for that read-out and setting: as for `O=S(=O)(c1ccccc1)N1CCCCC1`, the figure is 2.91 mM (≈ 655 µg/mL); as for `O=C(O)Cc1ccccc1C(=O)O`, 88.8 mM (≈ 16000 µg/mL); as for `NNC(=O)c1cccnc1`, 729 mM (≈ 100000 µg/mL).

`CC1(C)CO1` registered a solubility of 804 mM (≈ 58000 µg/mL). The compound `O=C(O)c1ccccc1C(=O)c1ccc(Cl)cc1` showed a solubility of 1.92 mM (≈ 500 µg/mL).

Compound `O=Cc1ccc(Br)o1` yielded a solubility of 28.6 mM (≈ 5000 µg/mL). Turning to `CCCCCCCS`, the solubility came to 0.07 mM (≈ 9.26 µg/mL). Still for that read-out and setting: as for `Nc1ncc2nccnc2n1`, the figure is 5.04 mM (≈ 741 µg/mL); as for `O=C(O)c1cc(Br)co1`, 65.4 mM (≈ 12500 µg/mL); as for `O=C(O)c1cccc2ncccc12`, 2.1 mM (≈ 364 µg/mL). Take `OCc1cccc(O)c1`: the solubility came to 540 mM (≈ 67000 µg/mL). `CC(C)(OC1CCCCC1)C(=O)O` showed a solubility of 83.2 mM (≈ 15500 µg/mL). For the compound `CNc1ncc2nccnc2n1`, the solubility was determined as 19.4 mM (≈ 3130 µg/mL). `Cc1snnc1C(=O)O` returned a solubility of 347 mM (≈ 50000 µg/mL). `CCCOC(=O)c1c(C(=O)O)cccc1[N+](=O)[O-]` showed a solubility of 4.5 mM (≈ 1140 µg/mL).

`CCC(C)S` (stereo not given): the solubility was found to be 14.6 mM (≈ 1320 µg/mL). The same measure, in the same setting: the result for `Cc1ncc2nccnc2n1` reads 760 mM (≈ 111000 µg/mL); that for `CCCCCCCCOC(=O)c1cc(O)c(O)c(O)c1`, 0.127 mM (≈ 36 µg/mL); that for `Cc1cnnc2c(O)cccc12`, 2.1 mM (≈ 336 µg/mL). For the compound `COC(=O)c1cc([N+](=O)[O-])ccc1C(=O)O`, the solubility was determined as 19 mM (≈ 4280 µg/mL).
